Assay results reported in patent US20110092544A1, “FUNGICIDAL PYRIDINES” (E.I. DU PONT DE nemours and company, priority 2008, published 2011).

What was measured:
Assay type in all cases: in vivo
[1] = system: Erysiphe graminis f. sp. tritici; experiment: Test A: wheat powdery mildew, preventive spray on wheat seedlings, visual disease rating
Description: (§1) General protocol for preparing test suspensions for Tests A-H: The test compounds were first dissolved in acetone in an amount equal to 3% of the final volume and then suspended at the desired concentration (in ppm) in acetone and purified water (50/50 mix) containing 250 ppm of the surfactant Trem® 014 (polyhydric alcohol esters). The resulting test suspensions were then used in tests A-H. Spraying a 200 ppm test suspension to the point of run-off on the test plants was the equivalent of a rate of 500 g/ha.
The test suspension was sprayed to the point of run-off on wheat seedlings. The following day the seedlings were inoculated with a spore dust of Erysiphe graminis f. sp. tritici (the causal agent of wheat powdery mildew) and incubated in a growth chamber at 20° C. for 8 days, after which time disease ratings were visually made.
(§2) Results for Tests A-H are given in Table A. In the table, a rating of 100 indicates 100% disease control and a rating of 0 indicates no disease control (relative to the controls). A dash (-) indicates no test results. All results are for compounds tested at 200 ppm except where the compound number is followed by “*” which indicates the compound was tested at 40 ppm.

[2] = system: Puccinia recondite f. sp. tritici; experiment: Test B: wheat leaf rust, preventive spray on wheat seedlings, visual disease rating
Description: as §1
(§3) The test suspension was sprayed to the point of run-off on wheat seedlings. The following day the seedlings were inoculated with a spore suspension of Puccinia recondite f. sp. tritici (the causal agent of wheat leaf rust) and incubated in a saturated atmosphere at 20° C. for 24 h, and then moved to a growth chamber at 20° C. for 7 days, after which time disease ratings were visually made.
as §2

[3] = system: Septoria tritici; experiment: Test C: wheat leaf blotch, preventive spray on wheat seedlings, visual disease rating
Description: as §1
as §3, with “Septoria” for “Puccinia recondite f. sp.”, “blotch)” for “rust)”, “48” for “24”, “and” for “and then”, “19 additional” for “7”
as §2

[4] = system: Septoria nodorum; experiment: Test D: wheat glume blotch, preventive spray on wheat seedlings, visual disease rating
Description: as §1
as §3, with “Septoria nodorum” for “Puccinia recondite f. sp. tritici”, “glume blotch)” for “leaf rust)”, “48” for “24”
as §2

[5] = system: Alternaria solani; experiment: Test E: tomato early blight, preventive spray on tomato seedlings, visual disease rating
Description: as §1
(§4) The test suspension was sprayed to the point of run-off on tomato seedlings. The following day the seedlings were inoculated with a spore suspension of Alternaria solani (the causal agent of tomato early blight) and incubated in a saturated atmosphere at 27° C. for 48 h, and then moved to a growth chamber at 20° C. for 5 days, after which time disease ratings were visually made.
as §2

[6] = system: Botrytis cinerea; experiment: Test F: tomato botrytis, preventive spray on tomato seedlings, visual disease rating
Description: as §1
as §4, with “Botrytis cinerea” for “Alternaria solani”, “botrytis)” for “early blight)”, “in” for “in a”, “20°” for “27°”, “24°” for “20°”, “3 additional” for “5”
as §2

[7] = 40 ppm (compound number followed by *)
[8] = 200 ppm, 100 = 100% disease control, 0 = no control

| SMILES | Test A rating (% disease control) [1, 7] [%] | Test B rating (% disease control) [2, 7] [%] | Test C rating (% disease control) [3, 7] [%] | Test D rating (% disease control) [4, 7] [%] | Test E rating (% disease control) [5, 7] [%] | Test F rating (% disease control) [6, 7] [%] | Test A rating (% disease control) [1, 8] [%] | Test B rating (% disease control) [2, 8] [%] | Test C rating (% disease control) [3, 8] [%] | Test D rating (% disease control) [4, 8] [%] | Test E rating (% disease control) [5, 8] [%] | Test F rating (% disease control) [6, 8] [%] | further results |
| --- | --- | --- | --- | --- | --- | --- | --- | --- | --- | --- | --- | --- | --- |
| COc1cc(OC)cc(-c2c(C(N)=O)cnc(C)c2-c2c(F)cc(F)cc2F)c1 [Compound 120] | 0 | 91 | 87 | 0 | 47 | 79 | – | – | – | – | – | – | – |
| COc1cc(OC)cc(-c2c(Br)cnc(C)c2-c2c(F)cc(F)cc2F)c1 [Compound 122, 5-bromo-4-(3,5-dimethoxyphenyl)-2-methyl-3-(2,4,6-trifluorophenyl)pyridine] | – | – | – | – | – | – | – | – | – | – | – | – | pest or weed control at 40 ppm ([1]; Blumeria graminis, 192 h, 40 ppm (compound number followed by *)): 98%; pest or weed control at 40 ppm ([2]; 192 h, 40 ppm (compound number followed by *)): 99%; pest or weed control at 40 ppm ([3]; Zymoseptoria tritici, 504 h, 40 ppm (compound number followed by *)): 99%; pest or weed control at 40 ppm ([4]; Parastagonospora nodorum, 216 h, 40 ppm (compound number followed by *)): 0%; pest or weed control at 40 ppm ([5]; Alternaria solani, 168 h, 40 ppm (compound number followed by *)): 0%; pest or weed control at 40 ppm ([6]; Botrytis cinerea, 120 h, 40 ppm (compound number followed by *)): 100% |
| COc1cc(OC)cc(-c2c(-c3ccccc3)cnc(C)c2-c2ccccc2F)c1 [Compound 86] | 96 | 98 | 93 | 0 | 31 | 92 | – | – | – | – | – | – | – |
| COc1cc(OC)cc(-c2c(Cn3ccc(C(F)(F)F)n3)cnc(C)c2-c2c(F)cc(F)cc2F)c1 [Compound 108] | – | – | – | – | – | – | 64 | 85 | 71 | 0 | 0 | 87 | – |
| COc1cc(OC)cc(-c2c(C3CCOCC3)cnc(C)c2-c2ccc(F)cc2)c1 [Compound 59] | – | – | – | – | – | – | 79 | 100 | 97 | 92 | 100 | 100 | – |
| COc1cc(OC)cc(-c2c(-c3cccnc3)cnc(C)c2-c2c(F)cc(F)cc2F)c1 [Compound 128] | 81 | 99 | 100 | 90 | 94 | 99 | – | – | – | – | – | – | – |
| COc1cc(OC)cc(-c2c(-c3cnc(OC)nc3OC)cnc(C)c2-c2c(F)cc(F)cc2F)c1 [Compound 131] | 0 | 9 | 0 | 0 | 0 | 80 | – | – | – | – | – | – | – |
| CCC(C)c1cnc(C)c(-c2ccc(F)cc2)c1-c1cc(OC)cc(OC)c1 (stereo not drawn) [Compound 63] | – | – | – | – | – | – | 78 | 96 | 79 | 0 | 74 | 97 | – |
| COc1ccc(-c2c(C)ncc(C(C)(O)CO)c2-c2cc(OC)cc(OC)c2)cc1 (single isomer, unassigned) [Compound 83] | – | – | – | – | – | – | 95 | 99 | 95 | 0 | 99 | 54 | – |
| Cc1ncc(-c2ccccc2F)c(-c2cc(O)cc(O)c2)c1-c1ccc(F)cc1 [Compound 100] | – | – | – | – | – | – | 76 | 89 | 76 | 0 | 0 | 100 | – |
| COc1cc(OC)cc(-c2c(-c3ccc(Cl)nc3)cnc(C)c2-c2c(F)cc(F)cc2F)c1 [Compound 127] | 90 | 97 | 99 | 0 | 0 | 99 | – | – | – | – | – | – | – |
